PMC7532004, “Site-specific effects of neurosteroids on GABAA receptor activation and desensitization” (eLife, 2020)
Values joined by “and” are separate entries in the source; they are usually repeats but may differ in a detail not shown here. Equal values may be shown once.

Columns and labels:
α1(V256S)β3 GABAAR = α1(V256S)β3 GABAAR (UniProt P28472+P62813, V283S); experiment: Two-electrode voltage clamp in Xenopus laevis oocytes, V256S mutant; assay type: cell-based; parameters: expressed in transfected cells; host or cells: Xenopus laevis oocytes injected with cRNA; conditions: for % of desensitization (reduction of steady-state current): 1 mM GABA
Chain of α1(V256S)β3 GABAAR (P62813 28-455 V283S): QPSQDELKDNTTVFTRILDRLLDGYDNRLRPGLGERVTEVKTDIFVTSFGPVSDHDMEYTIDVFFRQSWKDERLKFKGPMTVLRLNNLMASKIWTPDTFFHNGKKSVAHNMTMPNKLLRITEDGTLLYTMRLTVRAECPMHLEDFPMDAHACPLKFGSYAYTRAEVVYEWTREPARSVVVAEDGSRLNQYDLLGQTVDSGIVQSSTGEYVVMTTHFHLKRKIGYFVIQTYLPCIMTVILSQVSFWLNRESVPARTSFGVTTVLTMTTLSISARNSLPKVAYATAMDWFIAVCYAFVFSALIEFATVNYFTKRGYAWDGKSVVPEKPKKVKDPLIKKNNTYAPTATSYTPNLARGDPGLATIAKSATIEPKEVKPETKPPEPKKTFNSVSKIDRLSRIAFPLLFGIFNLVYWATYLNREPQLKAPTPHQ
Chain of α1(V256S)β3 GABAAR (P28472 26-473, stated change not applied): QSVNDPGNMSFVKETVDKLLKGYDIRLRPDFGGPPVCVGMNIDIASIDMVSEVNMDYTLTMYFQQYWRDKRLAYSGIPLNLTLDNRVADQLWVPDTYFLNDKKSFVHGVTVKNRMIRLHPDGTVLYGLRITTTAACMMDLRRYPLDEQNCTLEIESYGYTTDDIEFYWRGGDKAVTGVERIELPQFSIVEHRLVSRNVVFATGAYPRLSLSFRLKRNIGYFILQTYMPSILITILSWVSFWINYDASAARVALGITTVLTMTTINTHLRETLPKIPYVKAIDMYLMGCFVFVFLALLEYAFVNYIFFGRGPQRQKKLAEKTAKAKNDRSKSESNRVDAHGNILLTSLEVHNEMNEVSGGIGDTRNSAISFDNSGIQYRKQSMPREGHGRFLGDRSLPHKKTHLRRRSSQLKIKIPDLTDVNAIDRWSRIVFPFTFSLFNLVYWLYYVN
Experimental: (§1) The wild-type and mutant α1β3 GABAAR were expressed in oocytes from the African clawed frog (Xenopus laevis). Frogs were purchased from Xenopus 1 (Dexter, MI), and housed and cared for in a Washington University Animal Care Facility under the supervision of the Washington University Division of Comparative Medicine. Harvesting of oocytes was conducted under the Guide for the Care and Use of Laboratory Animals as adopted and promulgated by the National Institutes of Health. The animal protocol (No. 20180191) was approved by the Animal Studies Committee of Washington University in St. Louis. The oocytes were injected with a total of 12 ng cRNA. The ratio of cRNAs was 5:1 ratio (α1:β3) to minimize the expression of β3 homomeric receptors. Following injection, the oocytes were incubated in ND96 (96 mM NaCl, 2 mM KCl, 1.8 mM CaCl2, 1 mM MgCl2, 5 mM HEPES; pH 7.4) with supplements (2.5 mM Na pyruvate, 100 U/ml penicillin, 100 μg/ml streptomycin and 50 μg/ml gentamycin) at 16°C for 2 days prior to conducting electrophysiological recordings. The electrophysiological recordings were conducted at room temperature using standard two-electrode voltage clamp. The oocytes were clamped at −60 mV. The chamber (RC-1Z, Warner Instruments, Hamden, CT) was perfused with ND96 at 5–8 ml/min. Solutions were gravity-applied from 30 ml glass syringes with glass luer slips via Teflon tubing. The current responses were amplified with an OC-725C amplifier (Warner Instruments, Hamden, CT), digitized with a Digidata 1200 series digitizer (Molecular Devices), and stored using pClamp (Molecular Devices). Current traces were analyzed with Clampfit (Molecular Devices). […] The stock solution of muscimol was made at 20 mM in ND96 and stored at 4°C. The steroids were dissolved in DMSO at 10–20 mM and stored at room temperature.

α1β3 GABAAR = molecular target: T1, α1β3 GABAAR (UniProt P28472+P62813); experiment: Two-electrode voltage clamp in Xenopus laevis oocytes, WT receptor; assay type: cell-based; conditions: for Potentiation of GABA-elicited currents: 0.3 μM GABA, 10 μM neurosteroid, oocytes; for % of desensitization (reduction of steady-state current): 1 mM GABA, 3β5αP 3 μM, KK148 10 μM, KK150 10 μM, WT
T1 construct: expressed in transfected cells; host or cells: Xenopus laevis oocytes injected with cRNA (α1:β3 5:1)
T1 sequence (P62813 28-455): as the sequence (P62813 28-455 V283S) above, with S256V counted along it
T1 sequence (P28472 26-473): as the sequence (P28472 26-473, stated change not applied) above
Experimental: as §1
The converted current traces were analyzed in the framework of the three-state Resting-Open-Desensitized activation model ([Germann et al., 2019a]; [Germann et al., 2019b]). The model enables analysis and prediction of peak responses using four parameters that characterize the extent of constitutive activity (termed L; L = Resting/Open), affinity of the resting receptor to agonist (KC), affinity of the open receptor to agonist (KO), and the number of agonist binding sites (N). Analysis and prediction of steady-state responses requires an additional parameter, termed Q, that describes the equilibrium between open and desensitized receptors (Q = Open/Desensitized).
The Popen of the peak response is expressed as: Popen,peak=1/1+LΓ and the Popen of the steady-state response as: Popen,steady−state=1/1+1/Q+LΓ where Γ=[(1+[X]/KC)/(1+[X]/KO)]^N
[X]is the concentration of agonist present, and other terms are as described above. In practice, the value of LΓ was calculated using the experimentally determined Popen of the peak response, and then used as a fixed value in estimating Q from Popen,steady-state.
The Pdesensitized was calculated using: Pdesensitized=1/1+Q+QLΓ
Calculated probabilities (e.g. Popen, Pdesentitized) are reported as mean ± SD.

Compound: CC(=O)[C@H]1CC[C@H]2[C@@H]3CC[C@H]4C[C@H](O)CC[C@]4(C)[C@H]3CC[C@]12C [3α5αP, allopregnanolone]
- Inhibitory effect on steady-state current in the V256S mutant (α1(V256S)β3 GABAAR; 3 μM 3α5αP, 1 mM GABA + 40 μM pentobarbital): eliminated
- Potentiation of GABA-elicited currents (α1β3 GABAAR): potentiation

Compound: CC(=O)[C@H]1CC[C@H]2[C@@H]3CC[C@H]4C[C@@H](O)CC[C@]4(C)[C@H]3CC[C@]12C [3β5αP, epi-allopregnanolone]
- % of desensitization (reduction of steady-state current) (α1(V256S)β3 GABAAR): completely eliminated
- Calculated steady-state Pdesensitized (α1β3 GABAAR; 20 nM muscimol + 3 µM 3β5αP): 0.2168
- Steady-state Popen (α1β3 GABAAR; 20 nM muscimol + 3 µM 3β5αP): 0.009 ± 0.004
- Potentiation of GABA-elicited currents (α1β3 GABAAR): absence of potentiation
- Popen of the steady-state response (α1β3 GABAAR; 1 mM GABA + 3 µM 3β5αP): 0.077 ± 0.013
- Sum of (Popen + Pdesensitized) (α1β3 GABAAR; 1 mM GABA + 3 µM 3β5αP): 0.97
- Steady-state Pdesensitized (α1β3 GABAAR; 1 mM GABA + 3 µM 3β5αP, Resting-Open-Desensitized model): 0.892
- % of desensitization (reduction of steady-state current) (α1β3 GABAAR): ~ 25% and 23.0 ± 2.8%
- Effect on peak current amplitude (α1β3 GABAAR; co-application of 3 µM 3β5αP with 1 mM GABA): does not reduce
- Effect on decay rate of GABA-elicited currents (α1β3 GABAAR; prolonged co-application of 1 mM GABA + 3 µM 3β5αP): increases

Compound: C#CCCO[C@H]1CC[C@H]2[C@@H]3CC[C@H]4CC5(CC[C@]4(C)[C@H]3CC[C@]12C)N=N5 [KK148]
- % of desensitization (reduction of steady-state current) (α1(V256S)β3 GABAAR): 0%
- Potentiation of GABA-elicited currents (α1β3 GABAAR): absence of potentiation
- % of desensitization (reduction of steady-state current) (α1β3 GABAAR): 27.2 ± 6.0%

Compound: C#CCCO[C@@H]1CC[C@H]2[C@@H]3CC[C@H]4CC5(CC[C@]4(C)[C@H]3CC[C@]12C)N=N5 [KK150]
- Potentiation of GABA-elicited currents (α1β3 GABAAR): absence of potentiation
- % of desensitization (reduction of steady-state current) (α1β3 GABAAR): 2.1 ± 0.7%

Compound: NCc1cc(=O)[nH]o1 [muscimol]
- Peak Popen (α1β3 GABAAR; 20 nM muscimol): 0.012 ± 0.004
- Calculated steady-state Pdesensitized (α1β3 GABAAR; 20 nM muscimol alone): 0.1001
- Steady-state Popen (α1β3 GABAAR; 20 nM muscimol alone): 0.011 ± 0.004
